In ChEMBL document CHEMBL3132748, “Novel inhibitors of breast cancer relevant kinases Brk and HER2” (Medchemcomm, 2014):
Calls of active or inactive are those of the source. The rule behind the calls is not given here.

What was measured:
[1] = target: T1, Protein-tyrosine kinase 6 (Homo sapiens, UniProt Q13882); experiment: Inhibition of human recombinant GST-fused Brk expressed in baculovirus Sf9 insect cells using poly(Glu,Tyr) as substrate after 60 mins by scintillation counting
Target sequence in this assay (Q13882 whole entry, the tested form may be a part): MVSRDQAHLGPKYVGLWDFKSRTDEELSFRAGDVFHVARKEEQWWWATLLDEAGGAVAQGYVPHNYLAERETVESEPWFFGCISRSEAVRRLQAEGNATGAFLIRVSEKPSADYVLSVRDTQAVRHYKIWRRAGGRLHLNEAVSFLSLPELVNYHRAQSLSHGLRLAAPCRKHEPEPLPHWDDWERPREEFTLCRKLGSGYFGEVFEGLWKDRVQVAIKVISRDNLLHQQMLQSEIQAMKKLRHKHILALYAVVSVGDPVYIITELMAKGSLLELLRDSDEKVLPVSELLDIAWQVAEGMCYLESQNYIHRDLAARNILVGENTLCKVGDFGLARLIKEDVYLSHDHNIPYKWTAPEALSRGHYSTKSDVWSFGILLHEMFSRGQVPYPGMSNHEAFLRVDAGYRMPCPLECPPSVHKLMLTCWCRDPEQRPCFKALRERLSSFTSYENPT

[2] = target: Receptor tyrosine-protein kinase erbB-2 (Homo sapiens, UniProt P04626); experiment: Inhibition of human recombinant GST-fused HER2 expressed in baculovirus Sf9 insect cells using poly(Glu,Tyr) as substrate after 60 mins by scintillation counting
[3] = target: RAC-alpha serine/threonine-protein kinase (Homo sapiens) (UniProt P31749); experiment: Inhibition of AKT1 (unknown origin) using GSK3 (14 to 27) as substrate after 60 mins by scintillation counting
[4] = target: T2, Serine/threonine-protein kinase VRK1 (Homo sapiens) (UniProt Q99986); experiment: Inhibition of VRK1 (unknown origin) using RBER-CHKtide as substrate after 60 mins by scintillation counting
T2 sequence (whole entry): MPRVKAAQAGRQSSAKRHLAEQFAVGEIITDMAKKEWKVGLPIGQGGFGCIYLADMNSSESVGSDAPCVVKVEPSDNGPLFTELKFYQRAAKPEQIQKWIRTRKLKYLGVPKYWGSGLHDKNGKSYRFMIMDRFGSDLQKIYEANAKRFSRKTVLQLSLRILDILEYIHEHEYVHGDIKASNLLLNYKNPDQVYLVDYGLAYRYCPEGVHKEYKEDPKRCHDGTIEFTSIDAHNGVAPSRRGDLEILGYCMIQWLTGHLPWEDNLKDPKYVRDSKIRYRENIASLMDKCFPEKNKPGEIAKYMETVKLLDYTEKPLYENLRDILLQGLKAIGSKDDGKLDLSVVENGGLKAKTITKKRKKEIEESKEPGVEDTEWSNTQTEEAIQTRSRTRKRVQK

[5] = target: Mitogen-activated protein kinase 1 (Homo sapiens) (UniProt P28482); experiment: Inhibition of ERK2 (unknown origin) using RBER-CHKtide as substrate after 60 mins by scintillation counting
[6] = target: Serine/threonine-protein kinase PAK 1 (Homo sapiens) (UniProt Q13153); experiment: Inhibition of PAK1 (unknown origin) using tetra(LRRWSLG) as substrate after 60 mins by scintillation counting
[7] = target: T1, Protein-tyrosine kinase 6; experiment: Inhibition of BRK in human T47D cells assessed as phosphorylation of STAT3 at >100 nM by Western blot analysis; format: cell-based
Target sequence in this assay (Q13882 whole entry, looked up, the tested form may be a part): as the sequence (Q13882 whole entry, the tested form may be a part) above

[8] = target: Mitogen-activated protein kinase 10 (Homo sapiens) (UniProt P53779); experiment: Inhibition of JNK3 (unknown origin) using ATF2 as substrate after 60 mins by scintillation counting
Aurora kinase C = target: T3, Aurora kinase C (Homo sapiens, UniProt Q9UQB9); experiment: Inhibition of aurora-C (unknown origin) using tetra(LRRWSLG) as substrate after 60 mins by scintillation counting
T3 sequence (Q9UQB9 whole entry): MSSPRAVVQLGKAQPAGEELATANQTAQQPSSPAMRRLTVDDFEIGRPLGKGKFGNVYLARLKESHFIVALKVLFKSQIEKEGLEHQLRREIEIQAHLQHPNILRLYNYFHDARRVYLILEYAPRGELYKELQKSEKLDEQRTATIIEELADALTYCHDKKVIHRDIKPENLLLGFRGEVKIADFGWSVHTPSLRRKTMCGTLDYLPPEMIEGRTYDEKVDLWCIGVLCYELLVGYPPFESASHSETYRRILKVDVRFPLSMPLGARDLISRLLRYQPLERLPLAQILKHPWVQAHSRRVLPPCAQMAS

[9] = target: RAC-beta serine/threonine-protein kinase (Homo sapiens) (UniProt P31751); experiment: Inhibition of AKT2 (unknown origin)using GSK3 (14 to 27) as substrate after 60 mins by scintillation counting
MCF7 = experiment: Antiproliferative activity against human MCF7 cells by SRB assay; format: functional
[10] = target: Epidermal growth factor receptor (Homo sapiens, UniProt P00533); experiment: Inhibition of EGFR (unknown origin) using poly(Glu,Tyr) as substrate after 60 mins by scintillation counting
Aurora kinase A = target: T4, Aurora kinase A (Homo sapiens, UniProt O14965); experiment: Inhibition of aurora-A (unknown origin) using tetra(LRRWSLG) as substrate after 60 mins by scintillation counting
T4 sequence (O14965 whole entry): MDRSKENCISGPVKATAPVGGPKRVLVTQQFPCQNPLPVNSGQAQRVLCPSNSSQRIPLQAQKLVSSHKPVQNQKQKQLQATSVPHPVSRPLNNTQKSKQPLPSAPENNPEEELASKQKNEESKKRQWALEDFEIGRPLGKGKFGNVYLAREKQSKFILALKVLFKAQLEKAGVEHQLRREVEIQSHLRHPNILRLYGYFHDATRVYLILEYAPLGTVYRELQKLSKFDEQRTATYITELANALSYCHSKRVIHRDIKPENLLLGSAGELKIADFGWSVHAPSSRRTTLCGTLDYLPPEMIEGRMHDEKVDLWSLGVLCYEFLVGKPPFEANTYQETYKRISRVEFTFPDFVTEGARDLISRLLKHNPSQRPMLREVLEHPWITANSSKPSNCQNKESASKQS

MDA-MB-468 = experiment: Antiproliferative activity against human MDA-MB-468 cells by SRB assay; format: functional
[11] = target: Mitogen-activated protein kinase 8 (Homo sapiens) (UniProt P45983); experiment: Inhibition of JNK1 (unknown origin) using ATF2 as substrate after 60 mins by scintillation counting

Chain of Receptor tyrosine-protein kinase erbB-2 (P04626 whole entry, the tested form may be a part): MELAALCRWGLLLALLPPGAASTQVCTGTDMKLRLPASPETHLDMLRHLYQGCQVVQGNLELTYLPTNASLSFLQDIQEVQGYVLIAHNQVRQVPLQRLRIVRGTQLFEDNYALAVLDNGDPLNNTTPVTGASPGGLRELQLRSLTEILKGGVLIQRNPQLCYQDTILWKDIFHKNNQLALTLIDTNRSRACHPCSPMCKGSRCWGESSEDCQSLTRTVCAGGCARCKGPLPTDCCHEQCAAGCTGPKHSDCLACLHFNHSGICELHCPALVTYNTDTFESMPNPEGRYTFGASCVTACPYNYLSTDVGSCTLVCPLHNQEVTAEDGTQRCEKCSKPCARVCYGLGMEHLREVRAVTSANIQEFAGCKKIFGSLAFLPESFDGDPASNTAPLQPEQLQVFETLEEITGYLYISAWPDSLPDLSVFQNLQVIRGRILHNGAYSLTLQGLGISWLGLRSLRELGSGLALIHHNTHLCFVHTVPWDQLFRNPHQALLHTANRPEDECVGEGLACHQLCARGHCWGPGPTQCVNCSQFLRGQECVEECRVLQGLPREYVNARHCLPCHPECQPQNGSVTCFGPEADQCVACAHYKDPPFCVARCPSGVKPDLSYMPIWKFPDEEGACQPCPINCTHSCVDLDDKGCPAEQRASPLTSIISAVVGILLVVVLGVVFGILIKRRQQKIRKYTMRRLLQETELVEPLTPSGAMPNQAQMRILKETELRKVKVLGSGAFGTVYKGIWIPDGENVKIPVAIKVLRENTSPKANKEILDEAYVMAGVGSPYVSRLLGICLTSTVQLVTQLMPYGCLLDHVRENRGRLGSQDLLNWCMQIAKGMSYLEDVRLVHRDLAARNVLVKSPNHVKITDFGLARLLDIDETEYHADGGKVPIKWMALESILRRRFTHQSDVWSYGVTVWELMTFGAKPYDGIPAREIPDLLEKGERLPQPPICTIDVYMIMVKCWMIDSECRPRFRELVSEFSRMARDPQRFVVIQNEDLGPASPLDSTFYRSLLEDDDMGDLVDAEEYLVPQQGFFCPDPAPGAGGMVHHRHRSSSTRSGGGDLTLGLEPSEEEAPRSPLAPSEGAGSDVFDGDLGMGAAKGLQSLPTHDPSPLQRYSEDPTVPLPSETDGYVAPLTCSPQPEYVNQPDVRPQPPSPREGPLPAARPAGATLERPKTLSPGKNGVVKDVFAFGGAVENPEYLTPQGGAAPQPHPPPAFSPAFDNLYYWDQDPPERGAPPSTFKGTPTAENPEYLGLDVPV
Chain of RAC-alpha serine/threonine-protein kinase (Homo sapiens) (P31749 whole entry): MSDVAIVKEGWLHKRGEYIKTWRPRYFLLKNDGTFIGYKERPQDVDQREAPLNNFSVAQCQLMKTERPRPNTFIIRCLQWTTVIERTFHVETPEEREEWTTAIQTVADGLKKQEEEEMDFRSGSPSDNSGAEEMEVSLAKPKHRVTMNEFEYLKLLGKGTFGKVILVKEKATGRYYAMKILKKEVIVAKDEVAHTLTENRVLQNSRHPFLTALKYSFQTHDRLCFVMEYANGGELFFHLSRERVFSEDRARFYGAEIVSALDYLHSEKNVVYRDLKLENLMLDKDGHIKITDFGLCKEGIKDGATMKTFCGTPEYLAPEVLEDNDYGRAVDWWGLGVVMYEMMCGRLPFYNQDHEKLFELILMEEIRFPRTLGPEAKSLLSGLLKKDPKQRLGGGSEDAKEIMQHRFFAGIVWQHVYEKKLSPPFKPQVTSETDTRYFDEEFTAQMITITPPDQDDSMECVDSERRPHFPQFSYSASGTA
Chain of Serine/threonine-protein kinase PAK 1 (Homo sapiens) (Q13153 whole entry): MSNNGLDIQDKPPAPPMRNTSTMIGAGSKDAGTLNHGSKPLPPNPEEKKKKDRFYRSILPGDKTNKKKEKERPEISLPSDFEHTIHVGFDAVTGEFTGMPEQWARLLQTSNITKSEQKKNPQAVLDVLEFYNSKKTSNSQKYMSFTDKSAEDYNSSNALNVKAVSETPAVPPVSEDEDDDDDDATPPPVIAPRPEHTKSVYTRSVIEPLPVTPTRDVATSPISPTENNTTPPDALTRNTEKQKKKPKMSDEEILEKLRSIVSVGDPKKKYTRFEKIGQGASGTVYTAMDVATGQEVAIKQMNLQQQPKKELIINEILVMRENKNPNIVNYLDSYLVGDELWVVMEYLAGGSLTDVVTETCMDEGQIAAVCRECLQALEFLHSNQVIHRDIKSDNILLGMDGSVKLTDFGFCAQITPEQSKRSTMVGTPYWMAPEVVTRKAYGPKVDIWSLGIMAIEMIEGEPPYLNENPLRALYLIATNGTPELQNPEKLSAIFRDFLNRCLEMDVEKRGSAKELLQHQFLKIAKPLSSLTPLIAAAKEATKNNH
Chain of Mitogen-activated protein kinase 1 (Homo sapiens) (P28482 whole entry): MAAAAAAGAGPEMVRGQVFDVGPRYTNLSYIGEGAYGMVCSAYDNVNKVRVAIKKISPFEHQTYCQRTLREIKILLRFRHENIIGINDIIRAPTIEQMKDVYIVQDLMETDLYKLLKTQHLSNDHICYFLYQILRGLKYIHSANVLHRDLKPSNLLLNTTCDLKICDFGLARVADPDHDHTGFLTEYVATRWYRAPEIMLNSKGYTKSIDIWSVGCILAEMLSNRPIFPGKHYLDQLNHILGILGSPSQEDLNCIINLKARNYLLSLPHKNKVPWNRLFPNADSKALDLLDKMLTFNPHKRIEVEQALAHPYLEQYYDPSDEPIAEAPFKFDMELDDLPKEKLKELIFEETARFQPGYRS
Chain of RAC-beta serine/threonine-protein kinase (Homo sapiens) (P31751 whole entry): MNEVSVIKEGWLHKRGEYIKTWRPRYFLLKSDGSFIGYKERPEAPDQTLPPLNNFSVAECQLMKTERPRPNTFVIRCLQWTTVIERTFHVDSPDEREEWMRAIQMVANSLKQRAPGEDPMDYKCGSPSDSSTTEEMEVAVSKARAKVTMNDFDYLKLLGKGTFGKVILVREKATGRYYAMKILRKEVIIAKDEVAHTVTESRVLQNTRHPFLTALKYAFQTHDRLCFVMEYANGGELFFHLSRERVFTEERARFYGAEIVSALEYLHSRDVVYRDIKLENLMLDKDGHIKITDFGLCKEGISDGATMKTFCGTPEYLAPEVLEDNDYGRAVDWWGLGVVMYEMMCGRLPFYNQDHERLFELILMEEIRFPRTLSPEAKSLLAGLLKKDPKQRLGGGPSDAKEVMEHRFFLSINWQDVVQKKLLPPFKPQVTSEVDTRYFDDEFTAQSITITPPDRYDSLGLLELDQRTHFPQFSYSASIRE
Chain of Epidermal growth factor receptor (P00533 whole entry): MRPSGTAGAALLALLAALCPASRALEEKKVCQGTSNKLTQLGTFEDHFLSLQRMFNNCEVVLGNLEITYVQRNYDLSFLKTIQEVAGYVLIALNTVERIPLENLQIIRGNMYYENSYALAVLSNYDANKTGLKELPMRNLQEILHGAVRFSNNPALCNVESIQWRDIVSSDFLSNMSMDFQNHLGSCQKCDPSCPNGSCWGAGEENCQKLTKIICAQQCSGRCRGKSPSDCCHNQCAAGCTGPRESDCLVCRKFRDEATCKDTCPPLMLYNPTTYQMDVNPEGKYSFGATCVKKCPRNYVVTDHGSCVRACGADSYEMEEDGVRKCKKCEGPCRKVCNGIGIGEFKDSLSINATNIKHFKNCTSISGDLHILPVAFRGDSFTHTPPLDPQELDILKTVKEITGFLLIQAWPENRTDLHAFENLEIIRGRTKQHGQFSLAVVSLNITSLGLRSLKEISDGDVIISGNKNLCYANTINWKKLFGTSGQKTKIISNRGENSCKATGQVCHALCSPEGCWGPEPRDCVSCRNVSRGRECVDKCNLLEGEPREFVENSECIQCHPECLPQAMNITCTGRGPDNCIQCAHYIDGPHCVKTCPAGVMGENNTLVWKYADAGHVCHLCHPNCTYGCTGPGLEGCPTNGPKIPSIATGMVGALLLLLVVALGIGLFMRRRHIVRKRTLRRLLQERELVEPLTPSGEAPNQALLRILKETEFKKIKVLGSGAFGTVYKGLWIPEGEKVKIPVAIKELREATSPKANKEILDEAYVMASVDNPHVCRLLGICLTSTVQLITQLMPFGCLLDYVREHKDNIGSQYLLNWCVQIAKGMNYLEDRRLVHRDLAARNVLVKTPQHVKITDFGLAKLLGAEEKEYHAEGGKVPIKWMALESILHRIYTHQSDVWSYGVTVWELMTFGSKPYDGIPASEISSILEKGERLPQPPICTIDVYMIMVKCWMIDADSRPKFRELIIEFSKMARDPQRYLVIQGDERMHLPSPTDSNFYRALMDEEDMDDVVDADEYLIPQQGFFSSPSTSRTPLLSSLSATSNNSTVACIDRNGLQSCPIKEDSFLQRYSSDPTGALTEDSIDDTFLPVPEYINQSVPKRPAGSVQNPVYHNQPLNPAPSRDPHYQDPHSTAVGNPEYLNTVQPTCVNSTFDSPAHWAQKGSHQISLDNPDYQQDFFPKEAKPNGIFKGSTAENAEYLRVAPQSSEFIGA

| Structure (SMILES) | IC50 [1] [µM] | IC50 [2] [nM] | further results |
| --- | --- | --- | --- |
| CC(=O)c1ccc2[nH]c3nccc(Nc4cccc(Cl)c4)c3c2c1 | 0.013 | 1150 |  |
| CCOc1cccc(Nc2ccnc3[nH]c4ccc(S(=O)(=O)N5CCOCC5)cc4c23)c1 | 0.41 | 54800 |  |
| Oc1cccc(Nc2ccnc3[nH]c4ccccc4c23)c1 |  | 1300 | inhibition [3]: inactive; inhibition [4]: inactive; inhibition [5]: inactive; inhibition [6]: inactive; inhibition [7]: Active; inhibition [8]: inactive; IC50 (Aurora kinase C): 259 nM; inhibition [9]: inactive; GI50 (MCF7): 890 nM; IC50 [10]: 270 nM; IC50 (Aurora kinase A): 250 nM; GI50 (MDA-MB-468): 1000 nM; inhibition [11]: inactive |
| COc1cccc(Nc2ccnc3[nH]c4ccc(S(=O)(=O)N5CCOCC5)cc4c23)c1 | 0.0057 | 1240 |  |
| CCOc1cccc(Nc2ccnc3[nH]c4ccc(S(=O)(=O)N5CCN(CCO)CC5)cc4c23)c1 | 0.479 | 6530 |  |
| CC(=O)c1ccc2[nH]c3nccc(Nc4cccc(N)c4)c3c2c1 | 0.0076 | 1640 |  |
| CC(=O)c1ccc2[nH]c3nccc(Nc4cccc([N+](=O)[O-])c4)c3c2c1 | 0.021 | 978 |  |
| Oc1cccc(Nc2ccnc3[nH]c4ccc(Br)cc4c23)c1 |  |  | GI50 (MCF7): 440 nM; GI50 (MDA-MB-468): 1350 nM |
| Cc1ccccc1Nc1ccnc2[nH]c3ccccc3c12 | > 1000 | 978 |  |
| O=S(=O)(c1ccc2[nH]c3nccc(Nc4cccc(OCc5ccccc5)c4)c3c2c1)N1CCOCC1 | 0.055 | 28300 |  |

Second part, led by results:

| IC50 [1] [µM] | IC50 [2] [nM] | Structure (SMILES) | further results |
| --- | --- | --- | --- |
| > 1000 | 298 | O=S(=O)(c1ccc2[nH]c3nccc(Nc4cccc(O)c4)c3c2c1)N1CCOCC1 |  |
| 0.026 | 576 | CCOc1cccc(Nc2ccnc3[nH]c4ccc(S(=O)(=O)N5CCNCC5)cc4c23)c1 |  |
| > 1000 | 376 | O=S(=O)(c1ccc2[nH]c3nccc(Nc4cccc(O)c4)c3c2c1)N1CCN(CCO)CC1 |  |
| > 1000 | 13 | CC(=O)c1ccc2[nH]c3nccc(Nc4cccc(O)c4)c3c2c1 |  |
| > 1000 | 310 | Clc1ccc(Nc2ccnc3[nH]c4ccccc4c23)cc1 |  |
|  | 66 | Clc1cccc(Nc2ccnc3[nH]c4ccccc4c23)c1 |  |
| 0.0048 | 390 | COc1cccc(Nc2ccnc3[nH]c4ccc(S(=O)(=O)N5CCNCC5)cc4c23)c1 |  |
| 0.0092 | 689 | COc1cccc(Nc2ccnc3[nH]c4ccc(S(=O)(=O)N5CCN(CCO)CC5)cc4c23)c1 |  |
